Results taken from patent US6790621B2 (Washington State University Research Foundation, priority 2001, dated 2004).

Assays:
Collies [1] = assay: Loperamide neurotoxicity in Collies; format: in vivo, dogs; settings: one Collie of the study, homozygous for the mutant allele, treated with an appropriate dose as a puppy
Description: Determination of the genotype of Collies is important clinically for several reasons. […] The dog tested homozygous for the mutant allele.

Collies [2] = settings: cited from earlier work
Collies [3] = assay: Ivermectin sensitivity (signs of neurotoxicosis) in Collies by mdr1 genotype; format: in vivo, dogs; settings: oral 120 μg/kg
Procedure: Blood samples (8 ml) were obtained by jugular venipuncture from each of 13 clinically healthy Collies (Wil-O-Lane Kennels, Allegan, Mich.). […] Each dog was identified by an ear tattoo and housed in a run measuring 4×8 feet with metal walls and a raised, coated, metal screen floor. Facilities exceeded the minimal requirement specified by USDA guidelines.
We took advantage of a well-defined population of ivermectin-sensitive and non-sensitive Collies (Paul et al., Amer. J. Vet. Res. 61:482-483, 2000: Fassler et al., J. Am. Vet. Med. Assoc. 199:457-460, 1991). […] Clinical signs of neurotoxicity that were evaluated include apparent depression, ataxia, mydriasis, salivation, or drooling (Paul et al., Amer. J. Vet. Res. 61:482-483, 2000). Semi-quantitative reverse transcriptase PCR analysis was conducted on RNA isolated from ivermectin-sensitive and non-sensitive Collies to determine if mdr1 expression is lower in sensitive Collies than in non-sensitive Collies. Amplification of a 229-bp product of the canine glyceraldehyde 3-phosphate dehydrogenase (GAPDH) gene was used as an internal standard to control for variability in reverse transcriptase and PCR reactions.

Collies [4] = settings: Collies vs Beagles, one study; cited from earlier work

| Molecule | neurologic toxicity (Collies [1]) | concentration in brain tissue (Collies [2]; affected Collies) | neurotoxicity in Collies (Collies [2]; doses routinely used in other breeds) | ivermectin sensitivity (neurotoxicity) (Collies [3]; Collies heterozygous (normal/mutant) or homozygous normal) | ivermectin sensitivity (neurotoxicity) (Collies [3]; Collies homozygous for the mdr1 deletion (mutant/mutant)) | fraction of the lethal dose of ivermectin for Beagles that was lethal for Collies (Collies [4]) |
| --- | --- | --- | --- | --- | --- | --- |
| CN(C)C(=O)C(CCN1CCC(O)(c2ccc(Cl)cc2)CC1)(c1ccccc1)c1ccccc1 [loperamide, Loperamide] | severe (nearly fatal) neurologic toxicity | high concentrations in brain tissue | cause neurotoxicity |  |  |  |
| Ivermectin |  |  |  | not sensitive to ivermectin neurotoxicity | exhibit ivermectin sensitivity | 1/200 |
